Results taken from US20070203244A1, “INHIBITORS OF MEMBRANE TYPE-1 MATRIX METALLOPROTEINASE FOR THE TREATMENT OF INSULIN-DEPENDENT DIABETES MELLITUS” (priority 2006, published 2007).

Columns and labels:
[1] = target: T1, MMP-2 (Homo sapiens, UniProt P08253); details: cited from earlier work
T1 sequence (P08253 110-660): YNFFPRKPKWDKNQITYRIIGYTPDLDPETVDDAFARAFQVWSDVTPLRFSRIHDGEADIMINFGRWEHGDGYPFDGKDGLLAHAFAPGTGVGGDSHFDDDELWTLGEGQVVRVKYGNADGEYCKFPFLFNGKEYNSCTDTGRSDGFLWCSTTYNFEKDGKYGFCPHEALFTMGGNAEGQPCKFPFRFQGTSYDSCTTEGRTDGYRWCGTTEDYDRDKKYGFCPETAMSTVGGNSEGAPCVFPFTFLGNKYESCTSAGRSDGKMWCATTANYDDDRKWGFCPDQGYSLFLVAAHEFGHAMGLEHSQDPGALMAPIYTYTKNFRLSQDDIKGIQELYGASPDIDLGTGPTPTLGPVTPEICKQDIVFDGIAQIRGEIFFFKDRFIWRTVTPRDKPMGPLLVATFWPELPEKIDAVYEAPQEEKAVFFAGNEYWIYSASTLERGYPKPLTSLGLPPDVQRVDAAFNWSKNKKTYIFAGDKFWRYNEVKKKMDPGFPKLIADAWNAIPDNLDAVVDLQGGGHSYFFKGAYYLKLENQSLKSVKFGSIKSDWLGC

[2] = target: T2, MMP-9 (Homo sapiens, UniProt P14780); details: cited from earlier work
T2 sequence (P14780 94-707, species assumed): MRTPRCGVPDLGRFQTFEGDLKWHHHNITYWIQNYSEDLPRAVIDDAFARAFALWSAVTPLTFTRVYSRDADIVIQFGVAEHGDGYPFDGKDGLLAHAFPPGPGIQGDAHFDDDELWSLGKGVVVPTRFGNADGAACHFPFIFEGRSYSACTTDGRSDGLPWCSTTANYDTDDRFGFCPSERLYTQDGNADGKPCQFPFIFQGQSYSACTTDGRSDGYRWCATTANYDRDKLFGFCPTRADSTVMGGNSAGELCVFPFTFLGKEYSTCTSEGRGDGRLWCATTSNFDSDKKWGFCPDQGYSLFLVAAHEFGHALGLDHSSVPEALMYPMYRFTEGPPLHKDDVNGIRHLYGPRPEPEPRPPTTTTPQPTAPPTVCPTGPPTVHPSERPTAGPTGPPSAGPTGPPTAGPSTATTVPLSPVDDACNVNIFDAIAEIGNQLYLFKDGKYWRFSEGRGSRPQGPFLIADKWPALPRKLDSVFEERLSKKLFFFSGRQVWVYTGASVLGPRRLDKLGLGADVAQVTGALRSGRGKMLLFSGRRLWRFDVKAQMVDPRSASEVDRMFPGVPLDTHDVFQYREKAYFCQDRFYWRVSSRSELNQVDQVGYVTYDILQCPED

[3] = cited from earlier work
[4] = target: T3, MMP-7 (Homo sapiens, UniProt P09237); details: read-out: IC50 for MMP-7 inhibition; cited from earlier work
T3 sequence (P09237 95-267): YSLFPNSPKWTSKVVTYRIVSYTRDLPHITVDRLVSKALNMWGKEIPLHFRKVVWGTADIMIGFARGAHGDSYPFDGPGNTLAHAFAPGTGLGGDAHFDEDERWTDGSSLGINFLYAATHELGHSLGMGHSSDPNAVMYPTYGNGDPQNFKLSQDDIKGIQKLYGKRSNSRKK

[5] = system: MT1-MMP; details: HT1080 fibrosarcoma cell line; cited from earlier work
[6] = system: CD44 shedding in IS-CD8+ cells; assay: CD44 shedding in adherent IS-CD8+ cells, Western blotting; format: cell-based, NOD mouse; details: Example 1: adherent IS-CD8+ cells on gelatin
Description: Western Blotting—IS-CD8^+ cells were surface biotinylated for 1 h at 4° C. with 0.1 mg/ml sulfo-NHS-LC-biotin (Pierce, Rockford, Ill.). Following washes to remove biotin, cells were co-incubated for 2 h with MT1-MMP-CAT in serum-free, unsupplemented Click's medium. The cells were then lysed with 50 mM N-octyl-β-D-glucopyranoside in phosphate-buffered saline supplemented with 1 mM CaCl2, 1 mM MgCl2, and protease inhibitor mixture containing phenylmethylsulfonyl fluoride (1 mM) and aprotinin, pepstatin, and leupeptin (1 μg/ml each). Biotin-labeled CD44 was captured from the cell lysate and from the medium aliquots on streptavidin-agarose beads. The captured samples were examined by Western blotting with the CD44 (clone IM7.8.1) antibody to determine the released, soluble, CD44 ectodomain in the medium samples and the residual, membrane-anchored, cellular CD44 in the cell lysates.
Western blotting—IS-CD8^+ cells were surface biotinylated for 1 hr at 4° C. with 0.1 mg/ml of sulfo-NES-LC-biotin (Pierce). Following washes to remove biotin, the labeled cells were allowed to adhere in serum-free medium to plastic coated with 2% type I collagen/gelatin for 4 h or were kept in suspension. Under these experimental conditions, the vast majority of the cells became attached to gelatin. […] The cells were then lysed with 50 mM N-octyl-β-D-glucopyranoside in PBS supplemented with 1 mM CaCl2, 1 mM MgCl2, and protease inhibitor cocktail containing phenylmethylsulfonyl fluoride (1 mM) and aprotinin, pepstatin, and leupeptin (1 μg/ml each). Biotin-labeled CD44 was captured from the cell lysate and from the medium aliquots on streptavidine-Agarose beads. The captured samples were examined by Western blotting with the CD44 (clone IM7.8.1) antibody to determine the released, soluble, CD44 ectodomain in the medium samples and the residual, membrane-anchored, cellular CD44 in the cell lysates.

[7] = system: CD44; assay: Cleavage of cellular CD44 by external MT1-MMP-CAT in IS-CD8+ cells (FACS, Western blotting); format: cell-based, NOD mouse; details: GM6001 50 μM added to cells co-incubated with MT1-MMP-CAT
Description: Treatment of Cells with MT1-MMP-CAT—The catalytic domain of MT1-MMP (MT1-MMP-CAT; 3 μg) was co-incubated for 2 h at 37° C. with IS-CD8^+ cells (1×10^7 cells) in 0.2 ml of 50 mM HEPES, 10 Mm CaCl2, 0.5 mM MgCl2, 50 μM ZnCl2, and 0.01% Brij-35 buffer, pH 6.8. Where indicated, GM6001 (50 μM; Chemicon, Temecula, Calif.) was added to the samples. Following treatment, the cells were injected into the irradiated mice or used for DiI labeling, Western blotting, FACS analysis, and other analytical procedures (Savinov, A. Y., et al. (2003); Deryugina, E. I., et al. (2001); Rozanov, D. V., et al. (2001)).
Western Blotting—IS-CD8^+ cells were surface biotinylated for 1 h at 4° C. with 0.1 mg/ml sulfo-NHS-LC-biotin (Pierce, Rockford, Ill.). Following washes to remove biotin, cells were co-incubated for 2 h with MT1-MMP-CAT in serum-free, unsupplemented Click's medium. […]
Monoclonal Antibodies and FACS Analysis—IS-CD8^+ cells were stained with the MT1-MMP (Ab815; Chemicon), CD44 (clone IM7.8.1), CD3 (clone 17A2), and CD49d (clone SG31) monoclonal antibodies (all from BD Biosciences, Rockville, Md.) and the CD29 monoclonal antibody (Chemicon), followed by staining with fluorescein isothiocyanate- or phycoerythrinconjugated secondary antibody (BD Biosciences), and then analyzed on a FACScan flow cytometer (Becton Dickinson, Franklin Lakes, N.J.). […]

[8] = target: T4, MT1-MMP (Mus musculus, UniProt P53690); assay: MT1-MMP-dependent MMP-2 activation in adherent IS-CD8+ cells, gelatin zymography; format: cell-based, NOD mouse; details: Example 1: adherent IS-CD8+ cells on gelatin, 4 h
T4 construct: Endogenous MT1-MMP is latent in non-adherent IS-CD8^+ cells; endogenous in cells; host or cells: IS-CD8+ T cells (TGNFC8 clone, NOD mouse), adherent to gelatin
Description: MT1-MMP-dependent MMP-2 Activation and Gelatin Zymography—IS-CD8^+ cells (1×10^6) were either allowed to adhere for 4 h in serum-free unsupplemented Click's medium to plastic coated with 2% gelatin or kept in solution. Under these experimental conditions, the vast majority of cells became attached to gelatin. In 4 h, media samples (30 μl each) were withdrawn and analyzed by gelatin zymography (Deryugina, E. I., et al. (2001)) to identify the proteolytic activity and the activation status of MMP-2 naturally synthesized by IS-CD8^+ cells. Where indicated, cells were supplemented with external purified pro-MMP-2 (20 ng). Pro-MMP-2 was isolated from a conditioned medium of p2AHT2A72 cells derived from an HT1080 fibrosarcoma cell line sequentially transfected with the E1A and MMP-2 cDNAs (Strongin, A. Y., et al. (1995)).
MT1-MMP-dependent MMP-2 activation and gelatin zymography—IS-CD8^+ cells (1×10^6) were either allowed to adhere for 4 h in serum-free unsupplemented Click's medium to the plastic coated with 2% gelatin or kept in solution. In 18 h, media samples (30 μl each) were withdrawn and analyzed by gelatin zymography (Deryugina, E. I., et al. (2001)) to identify the proteolytic activity and the activation status of MMP-2 naturally synthesized by IS-CD8^+ cells. […] Pro-MMP-2 was isolated from a conditioned medium of p2AHT2A72 cells derived from an HT1080 fibrosarcoma cell line sequentially transfected with the E1A and MMP-2 cDNAs (Strongin, A. Y., et al. (1995)).

[9] = system: Zucker diabetic fatty rats; details: cited from earlier work
[10] = system: MT1-MMP; details: read-out: EC50 against MT1-MMP; cited from earlier work
[11] = target: T2, MMP-9; details: read-out: EC50 against MMP-9; cited from earlier work
[12] = target: T3, MMP-7; details: read-out: EC50 against MMP-7; cited from earlier work
[13] = system: α1-antitrypsin
[14] = target: cell surface-associated CD44 of IS-CD8+ T cells (mouse) (UniProt P15379); assay: cell-based or functional assay
cell surface-associated CD44 of IS-CD8+ T cells (mouse), sequence (P15379 23-778): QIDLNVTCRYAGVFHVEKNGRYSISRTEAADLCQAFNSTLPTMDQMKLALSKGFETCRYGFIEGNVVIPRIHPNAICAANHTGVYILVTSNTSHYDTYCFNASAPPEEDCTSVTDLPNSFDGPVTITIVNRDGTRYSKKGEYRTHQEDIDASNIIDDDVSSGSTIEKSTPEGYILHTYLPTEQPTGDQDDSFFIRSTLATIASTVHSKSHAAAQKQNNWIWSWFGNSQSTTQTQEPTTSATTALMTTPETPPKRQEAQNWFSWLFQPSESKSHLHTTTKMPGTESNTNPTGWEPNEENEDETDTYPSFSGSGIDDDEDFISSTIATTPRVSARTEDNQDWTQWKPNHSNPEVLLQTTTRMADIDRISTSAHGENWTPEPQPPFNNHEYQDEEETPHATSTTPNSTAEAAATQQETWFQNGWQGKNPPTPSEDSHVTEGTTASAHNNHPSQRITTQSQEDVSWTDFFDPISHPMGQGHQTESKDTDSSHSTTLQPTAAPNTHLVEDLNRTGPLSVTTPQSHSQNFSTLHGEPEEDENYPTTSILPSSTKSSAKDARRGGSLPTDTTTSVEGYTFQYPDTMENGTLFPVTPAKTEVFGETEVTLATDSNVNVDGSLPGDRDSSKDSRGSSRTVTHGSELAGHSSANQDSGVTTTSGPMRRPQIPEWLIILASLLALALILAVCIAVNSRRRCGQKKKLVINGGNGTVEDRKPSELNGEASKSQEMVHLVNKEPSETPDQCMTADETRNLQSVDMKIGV

[15] = target: cell surface-associated CD44 of IS-CD8+ T cells (UniProt P15379)
cell surface-associated CD44 of IS-CD8+ T cells, sequence (P15379 23-778): as above

In the case of `O=C(C[C@H](CSc1ccccc1)C(=O)O)c1ccc(-c2ccc(Cl)cc2)cc1` [BAY 12-9566], the “IC50 for MMP-2 inhibition” value [1] is listed as “below 0.13 μg/mL”, the “IC50 for MMP-9 inhibition” value [2] is listed as “below 0.13 μg/mL” and the “time to peak plasma concentrations after dosing” value ([3]; after oral administration) is listed as 0.5 to 2 h. For the same compound, the linearity of pharmacokinetics ([3]; normal volunteers, doses of up to 100 mg/day) was “linear” and the “effect of repeated administration on clearance” value ([3]; repeated administration) was “increased clearance”.

In the case of `CNC(=O)[C@H](Cc1ccccc1)NC(=O)[C@H](CC(C)C)[C@H](CSc1cccs1)C(=O)NO` [Batimastat], the IC50 ([2]; read-out: IC50 for MMP-9 inhibition) is given as less than 0.0209 µM and the IC50 [4] is given as less than 0.0209 µM.

In the case of `O=P(O)(O)C(Cl)(Cl)P(=O)(O)O` [Clodronate], the “expression of MT1-MMP protein and messenger RNA” value [5] is given as “inhibited”.

For `CNC(=O)[C@H](Cc1c[nH]c2ccccc12)NC(=O)[C@@H](CC(=O)NO)CC(C)C` [GM6001], the “shedding of CD44 in adherent cells” value [6] was “blocked”, the “effect on MT1-MMP-CAT cleavage of cellular CD44” value [7] was “reversed the effect of MT1-MMP-CAT” and the “activation of MMP-2 in adherent cells” value [8] was “blocked”.

For `CC(C)[C@H](NS(=O)(=O)c1ccc(-c2ccc(Br)cc2)cc1)C(=O)O` [PD166793, (S)-2-(4′-bromo-biphenyl-4-sulfonylamino)-3-methyl-butyric acid], the β cell mass [9] is listed as “preserved β cell mass”, the EC50 [10] is listed as 0.24 µM and the EC50 [11] is listed as 7.9 µM. The EC50 [12] was 7.2 µM.

In the case of “MMP-2 (as incubated with α1-antitrypsin)”, the “cleavage of α1-antitrypsin in vitro, reducing SDS-gel electrophoresis” value [13] is reported as “the MMP-2 proteolysis of α1-antitrypsin (a sensitive and readily available protein substrate of MMPs) and converting this 61 kDa serpin into a 55 kDa degradation fragment”.

Work on “catalytic domain of MT1-MMP (MT1-MMP-CAT) (enzyme)” yielded a homing of DiI-labeled IS-CD8+ cells into the pancreatic islets of NOD mice, 24 h [14] of 4.5 fold.

With “cell surface-associated MT1-MMP of IS-CD8+ T cells” the “release of CD44 proteolytic fragments into medium, Western blotting” value [15] was “release of the CD44 proteolytic fragments into medium was detected only in adherent IS-CD8^+ cells”.
